{"source": "patent US20190315775A1", "about": "“MODIFIED […] AND PHARMACEUTICAL COMPOSITION HAVING SAME AS ACTIVE INGREDIENT” (KEIO UNIVERSITY, priority 2016, published 2019)", "key": {"cereblon (CRBN) [1]": {"target": "T1, cereblon (CRBN) (Homo sapiens, UniProt Q96SW2)", "T1 construct": "recombinant full-length CRBN prepared by the above method was reacted with the beads; T7 tag (N); FLAG tag (C); made in house; host or cells: 293T cells (pcDNA3.3 vector), RIPA extract purified on Ni Sepharose excel", "T1 sequence (Q96SW2 whole entry)": "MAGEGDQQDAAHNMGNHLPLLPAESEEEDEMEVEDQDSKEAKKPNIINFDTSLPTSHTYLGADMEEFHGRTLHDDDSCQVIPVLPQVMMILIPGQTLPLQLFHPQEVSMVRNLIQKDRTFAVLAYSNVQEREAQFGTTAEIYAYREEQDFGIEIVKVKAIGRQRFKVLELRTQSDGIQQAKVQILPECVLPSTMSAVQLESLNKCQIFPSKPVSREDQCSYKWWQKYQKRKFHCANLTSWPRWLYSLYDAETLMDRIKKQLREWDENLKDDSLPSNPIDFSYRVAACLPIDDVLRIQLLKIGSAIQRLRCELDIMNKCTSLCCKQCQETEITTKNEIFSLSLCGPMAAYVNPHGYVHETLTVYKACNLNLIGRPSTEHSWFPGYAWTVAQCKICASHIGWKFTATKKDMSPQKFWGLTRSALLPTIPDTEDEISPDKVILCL", "test": "Pull-down assay of cereblon with biotinylated drug on streptavidin beads", "type": "binding", "conditions": "30° C., 30 minutes, FIG. 9A", "method": "CRBN was prepared as follows. A T7 tag was added 5′-upstream of, and a FLAG tag and a histidine tag were added 3′-downstream of a full-length CRBN gene. The gene was introduced into a pcDNA3.3 expression vector (Invitrogen), thereby constructing a plasmid DNA. Next, a Kozak sequence was added 5′-upstream of the T7 tag using a KOD-Plus-Mutagenesis Kit (TOYOBO). The plasmid DNA was transfected into 293T cells. After 4 days of culture at 37° C. with 5% CO2, cells were extracted with a RIPA buffer (Thermo), and then the extracted fraction was purified using Ni Sepharose excel (GE Healthcare). Since the purified fraction contained imidazole, TBS (Nacalai Tesque) was subjected to buffer exchange. […] Centrifugation was performed to separate the resultants into a flow-through (F) fraction and a bead (B) fraction. Protein bands corresponding to CRBN were separated by SDS-PAGE, and then detected by Western blot. […] Note that “I” indicates “Input fraction”."}, "[2]": {"test": "Water solubility of drugs (saturation concentration by HPLC)", "type": "physicochemical", "conditions": "100 mM Tris-HCl (pH 7.5); for Water solubility: 25° C., saturation concentration; for Water solubility, relative ratio (numerals in parentheses): relative to TC11"}, "[3]": {"tested_on": "KMS21 high-risk MM cell line", "test": "WST-1 cell proliferation inhibition (Example 8), KMS21", "type": "cell-based", "conditions": "Homo sapiens, WST-1, 48 hours, read-out: IC50, cell proliferation inhibitory activity, KMS21", "method": "(§1) Similar to Example 7, high-risk MM cell lines were treated with drugs, TC11 and PEG5(E)-TC11 at arbitrary concentrations. […] Specifically, each high-risk MM cell line was prepared at 5×10^5 cells/ml, and then seeded at 50 μl per well (2.5×10^4 cells). Drugs such as TC11, and PEG5(E)-TC11 were added to wells at arbitrary concentrations. WST-1 reagent was added at 48 hours after addition of drugs. After 1 hour of reaction at 37° C. in a CO2 incubator, absorbance was measured at a wavelength of 450 nm using a microplate reader. Cell viability was found from an absorbance ratio using absorbance at 0 μM designated as 100%. IC50 was calculated from a semi-logarithmic chart using Microsoft (registered trademark) Excel."}, "high-risk MM cell lines [4]": {"tested_on": "high-risk MM cell lines", "test": "WST-1 cell proliferation inhibition (Example 8), panel of high-risk MM cell lines", "type": "cell-based", "conditions": "Homo sapiens; range over the cell lines of Table 3; WST-1, 48 hours", "method": "as §1"}, "[5]": {"tested_on": "KMS34 high-risk MM cell line", "test": "WST-1 cell proliferation inhibition (Example 8), KMS34", "type": "cell-based", "conditions": "Homo sapiens, KMS-34, WST-1, 48 hours, read-out: IC50, cell proliferation inhibitory activity, KMS34", "method": "as §1"}, "[6]": {"tested_on": "KMS11 high-risk MM cell line", "test": "WST-1 cell proliferation inhibition (Example 8), KMS11", "type": "cell-based", "conditions": "Homo sapiens, KMS-11, WST-1, 48 hours, read-out: IC50, cell proliferation inhibitory activity, KMS11", "method": "as §1"}, "[7]": {"tested_on": "KMM1 high-risk MM cell line", "test": "WST-1 cell proliferation inhibition (Example 8), KMM1", "type": "cell-based", "conditions": "Homo sapiens, KMM-1, WST-1, 48 hours, read-out: IC50, cell proliferation inhibitory activity, KMM1", "method": "as §1"}, "MUM24 MM cell line": {"tested_on": "MUM24 MM cell line", "test": "MTT cell proliferation inhibition, MUM24", "type": "cell-based", "conditions": "Homo sapiens, MUM24, t(4;14), del13, del17, 48 hours, read-out: IC50, cell proliferation inhibitory activity, MUM24"}, "high-risk MM cell lines [8]": {"tested_on": "high-risk MM cell lines", "test": "MTT cell proliferation inhibition, panel of high-risk MM cell lines", "type": "cell-based", "conditions": "Homo sapiens, range over the cell lines of Table 2, 48 hours", "method": "(§2) For examination of cell proliferation inhibitory activity, high-risk MM cell lines (KMM1, KMS11, KMS21, KMS26, KMS28, KMS34) established by Takemi Otsuki et al., of Kawasaki Medical School were used (Otsuki, T. et al., Int. J. Oncol., 15: 1205-1212, 1999). […] The genetic abnormality of these cell types, and in particular deletion of p53 gene were examined by FISH method (Chang, H. Blood, 105: 358-360, 2005) (WO2010/061862A1). […] These high-risk MM cell lines were treated with drugs such as TC11, HOEtO-TC11, PEG11(E)-TC11, and PEG11(O)-TC11 at arbitrary concentrations. […] Specifically, each high-risk MM cell line was prepared at a concentration of 2×10^5 cells/ml, and then seeded in an amount of 50 μl (1×10^4 cells) per well. After 24 hours, drugs such as TC11, HOEtO-TC11, PEG11(E)-TC11, and PEG11(O)-TC11 having arbitrary concentrations were added. At 48 hours after addition of each drug, 10 μL each of an MTT labeling reagent in Cell Proliferation Kit I [MTT] (Roche Diagnostics, Basel, Switzerland) was added. After 4 hours of treatment at 37° C., 100 μL each of solution buffer was added and then left to stand overnight at 37° C. Absorbance was measured using a microplate reader Infinit™ M1000 (Tecan, Maennedorf, Switzerland) at a wavelength of 570 nm. Cell viability was found from an absorbance ratio using absorbance at 0 μM designated as 100%. IC50 was calculated from a semi-logarithmic chart using Microsoft (registered trademark) Excel."}, "[9]": {"tested_on": "KMS34 high-risk MM cell line", "test": "MTT cell proliferation inhibition, KMS34", "type": "cell-based", "conditions": "Homo sapiens, KMS-34, KMS34, t(4;14), del17, 48 hours, read-out: IC50, cell proliferation inhibitory activity, KMS34", "method": "as §2"}, "[10]": {"tested_on": "KMS21 high-risk MM cell line", "test": "MTT cell proliferation inhibition, KMS21", "type": "cell-based", "conditions": "Homo sapiens, KMS21, t(11;14), 48 hours, read-out: IC50, cell proliferation inhibitory activity, KMS21", "method": "as §2\nMoreover, the concentration dependency of the in vitro cell proliferation inhibitory activity of TC11, and its derivatives, PEG11(E)-TC11 and HOEtO-TC11 against high-risk MM cell line (KMS21) was examined in detail (FIG. 4). […] Such a phenomenon was similarly observed for other high-risk MM cell lines, KMS11, KMS34, and MUM24."}, "[11]": {"tested_on": "KMS26 high-risk MM cell line", "test": "MTT cell proliferation inhibition, KMS26", "type": "cell-based", "conditions": "Homo sapiens, KMS-26, KMS26, t(4;14), t(4;16), del17, 48 hours, read-out: IC50, cell proliferation inhibitory activity, KMS26", "method": "as §2"}, "cereblon (CRBN) [12]": {"target": "T1, cereblon (CRBN)", "test": "Surface plasmon resonance biosensor (BIACORE 3000) interaction with cereblon", "type": "binding", "conditions": "measured at 1 μM, 2 μM and 10 μM, FIG. 9C"}, "[13]": {"tested_on": "KMM1 high-risk MM cell line", "test": "MTT cell proliferation inhibition, KMM1", "type": "cell-based", "conditions": "Homo sapiens, KMM-1, KMM1, t(6;14), t(8;14), del17, 48 hours, read-out: IC50, cell proliferation inhibitory activity, KMM1", "method": "as §2"}, "[14]": {"tested_on": "KMS11 high-risk MM cell line", "test": "MTT cell proliferation inhibition, KMS11", "type": "cell-based", "conditions": "Homo sapiens, KMS-11, KMS11, t(4;14), del17, 48 hours, read-out: IC50, cell proliferation inhibitory activity, KMS11", "method": "as §2"}, "KMS11 xenograft": {"tested_on": "KMS11 xenograft", "test": "Antitumor effect on KMS11 cancer-bearing mice (Example 17)", "type": "in vivo, ICR/SCID mice", "method": "KMS11 was administered to 5-week-old ICR/SCID mice at 2×10^7 cells/mouse via hypodermic injection. Tumor volumes were measured over time, and the day on which the tumor volume exceeded 50 mm^3 was designated as Day 1 and observation was performed for 9 days. […] On the day of administration, these solutions were diluted 10-fold with physiological saline while stirring with Vortex, and then intraperitoneally administered. Tumor volume was calculated by the following formula.\nTumor volume (mm^3)=major axis×minor axis×minor axis×π/6=major axis×minor axis×minor axis×0.5236"}}}
{"smiles": "O=C1CCC(N2C(=O)c3ccccc3C2=O)C(=O)N1", "note": "(stereo not drawn) [thalidomide]", "values": [{"measurement": "Binding of CRBN to drug immobilized on beads (pull-down, Western blot)", "setting": "cereblon (CRBN) [1]", "value": "bound"}]}
{"smiles": "CC(C)c1cccc(C(C)C)c1N1C(=O)c2cc(N)c(OCCO[C@@H]3OC(CO)[C@@H](O)[C@H](O)C3O)cc2C1=O", "note": "(stereo partly drawn) [Glu-TC11]", "values": [{"measurement": "Water solubility", "setting": "[2]", "value": 0.082, "unit": "g/100 ml"}, {"measurement": "Water solubility, relative ratio (numerals in parentheses)", "setting": "[2]", "value": 41, "unit": "×"}]}
{"smiles": "COCCOCCOCCOCCOCCC(=O)OCCOc1cc2c(cc1N)C(=O)N(c1c(C(C)C)cccc1C(C)C)C2=O", "note": "[PEG5(E)-TC11]", "values": [{"measurement": "IC50", "setting": "[3]", "value": 1.2, "unit": "µM"}, {"measurement": "Water solubility", "setting": "[2]", "value": 0.002, "unit": "g/100 ml"}, {"measurement": "Water solubility, relative ratio (numerals in parentheses)", "setting": "[2]", "value": 1, "unit": "×"}, {"measurement": "IC50", "setting": "high-risk MM cell lines [4]", "value": "1.3 to 4.6", "unit": "µM"}, {"measurement": "IC50", "setting": "[5]", "value": 6.5, "unit": "µM"}, {"measurement": "IC50", "setting": "[6]", "value": 1.4, "unit": "µM"}, {"measurement": "IC50", "setting": "[7]", "value": 3.6, "unit": "µM"}]}
{"smiles": "CC(C)c1cccc(C(C)C)c1N1C(=O)c2cc(N)c(OCCO)cc2C1=O", "note": "[HOEtO-TC11, hydroxyethoxy-TC11]", "values": [{"measurement": "IC50", "setting": "MUM24 MM cell line", "value": 4, "unit": "µM"}, {"measurement": "IC50", "setting": "high-risk MM cell lines [8]", "value": "1 to 8", "unit": "µM"}, {"measurement": "Water solubility", "setting": "[2]", "value": 0.027, "unit": "g/100 ml"}, {"measurement": "Water solubility, relative ratio (numerals in parentheses)", "setting": "[2]", "value": 13.5, "unit": "×"}, {"measurement": "IC50", "setting": "[9]", "value": 4.1, "unit": "µM"}, {"measurement": "IC50", "setting": "[10]", "value": 2.4, "unit": "µM"}, {"measurement": "IC50", "setting": "[11]", "value": 1.9, "unit": "µM"}, {"measurement": "Binding to CRBN (SPR sensorgram)", "setting": "cereblon (CRBN) [12]", "value": "never bind to CRBN"}, {"measurement": "IC50", "setting": "[13]", "value": 7.7, "unit": "µM"}, {"measurement": "IC50", "setting": "[14]", "value": 3.9, "unit": "µM"}, {"measurement": "KMS-11 tumor growth, level relative to the control", "setting": "KMS11 xenograft; Day 9, HOEtO-TC11 71.1 mg/kg BW i.p.", "value": "about ⅓"}, {"measurement": "KMS-11 tumor growth, level relative to TC11", "setting": "KMS11 xenograft; Day 9, HOEtO-TC11 71.1 mg/kg BW i.p. vs TC11 60 mg/kgBW", "value": "about a half"}, {"measurement": "KMS-11 tumor growth compared to control mice", "setting": "KMS11 xenograft; Day 9, i.p., equimolar to TC11 60 mg/kgBW", "value": "tumor growth was suppressed"}]}
{"smiles": "Nc1cccc2c1CN(C1CCC(=O)NC1=O)C2=O", "note": "(stereo not drawn) [lenalidomide, reference compound]", "values": [{"measurement": "In vivo anti-tumor effect compared to HOEtO-TC11", "setting": "KMS11 xenograft; lenalidomide 49.9 mg/kgBW i.p., KMS11 xenograft", "value": "clearly weaker than that of HOEtO-TC11"}]}
